In patent publication US20230338342A1, “METHODS OF TREATING RIBONUCLEOTIDE REDUCTASE-RELATED DISEASES WITH A RIBONUCLEOTIDE REDUCTASE INHIBITOR” (Taiho Pharmaceutical Co., Ltd., priority 2020, published 2023):

Key:
[1] = Body weight change as index of toxicity in MV-4-11 tumor-bearing mice; assay type: in vivo, male nude mice; details: up to Day 15
Protocol: (§1) Anti-tumor Effect and body weight change in Various Dosing Regimens Human acute myelocytic leukemia (AML) cell line MV-4-11 cells (American Type Culture Collection CRL-9591™) were implanted in the right thorax of male nude mice (CLEA Japan, Inc.). After implantation of the tumor, the major axis (mm) and minor axis (mm) of the tumor were measured, and tumor volume (TV) was calculated for each mouse. Then, the mice were assigned to the following groups, Control group (○), Continuous Dosing Group (●: 100 mg/kg/day; ◊: 150 mg/kg/day) and 1-week ON+1-week OFF Dosing Group (▲: 200 mg/kg/day; ◆: 300 mg/kg/day), so that the average TV of each group was equivalent. The day in which the grouping (n=5) was conducted was taken as Day 0.
5-chloro-2-(N-((1S,2R)-2-(6-fluoro-2,3-dimetylphenyl)-1-(5-oxo-4,5-dihydro-1,3,4-o xadiazol-2-yl)propyl)sulfamoyl)benzamide (Compound A) was suspended in 5 mg/mL hypromellose solution to provide appropriate test samples for 100 mg/kg, 150 mg/kg, 200 mg/kg, and 300 mg/kg dosing regimen. Animals of the Control group were not treated. […]
On the other hand, the body weight (BW) was measured on Days 4, 8, 11 and 15, and the average body weight change (BW change, %) relative to the body weight on Day 0 was calculated by the following formula, as an index of toxicity during the dosing period: BW change (%) = [(BW on Day n) - (BW on Day 0)] / (BW on Day 0) x 100.

A673 cells [2] = test: Cell proliferation assay in A673 cells treated with siRNA against SLFN11; assay type: cell-based; details: siSLFN11-1 and siSLFN11-2 vs siControl, 72 h treatment
Protocol: (§2) A673 cells were transfected with 1 nM siRNAs for 24 h using Lipofectamine® RNAiMAX Reagent (Thermo Fisher Scientific Inc.) and then re-seeded onto a 96-well plate for cell proliferation assay and caspase induction assay and onto dishes for immunoblotting analysis. siRNAs were obtained from Thermo Fisher Scientific Inc. as follows: Silencer® Select Negative Control #1 siRNA (#4390843 used as siControl), SLFN11 Silencer® Select Pre-designed siRNA (#s40703 used as siSLFN11-1, and #s40704 as siSLFN11-2).
Cell proliferation assay was performed as reported previously (Hasako, et al., ibid.). Briefly, cells treated with siRNAs for 24 h were plated onto 96 well plate and incubated for 24 h, followed by 3 days of exposure to the compound. After compound exposure, viable cells were detected by using the CellTiter-Glo luminescent cell viability assay (Promega).

[3] = tested on: Human acute myelocytic leukemia (AML) cell line MV-4-11 cells; test: Anti-tumor effect in MV-4-11 xenograft under various dosing regimens; assay type: in vivo, male nude mice; details: for effect of reducing tumor volume (relative tumor volume, RTV): Day 15, vs Control Group
Protocol: as §1
5-chloro-2-(N-((1S,2R)-2-(6-fluoro-2,3-dimetylphenyl)-1-(5-oxo-4,5-dihydro-1,3,4-o xadiazol-2-yl)propyl)sulfamoyl)benzamide (Compound A) was suspended in 5 mg/mL hypromellose solution to provide appropriate test samples for 100 mg/kg, 150 mg/kg, 200 mg/kg, and 300 mg/kg dosing regimen. Animals of the Control group were not treated.
To mice in the Continuous Dosing Group, 100 mg/kg/day or 150 mg/kg/day of Compound A was orally administered once daily from Day 1 to Day 14. The total dosage for mice in the Continuous Dosing Group administered 100 mg/kg/day (Group C-1) is 1400 mg/kg, and the total dosage for mice in the Continuous Dosing Group administered 150 mg/kg/day (Group C-2) is 2100 mg/kg.
To mice in the 1-week ON+1-week OFF Dosing Group, 200 mg/kg/day or 300 mg/ kg/day of Compound A was orally administered once daily from Day 1 to Day 7, and not administered from Day 8 to Day 14, which corresponds to a resting period of 7 days (1 week) for recovery. The total dosage for mice in the 1-week ON+1-week OFF Dosing Group administered 200 mg/kg/day (Group I-1) is 1400 mg/kg, and the total dosage for mice in the 1-week ON+1-week OFF Dosing Group administered 300 mg/ kg/day (Group I-2) are 2100 mg/kg.
On Days 4, 8, 11 and 15, using the following formula: TV (mm^3) = (major axis x minor axis^2) / 2, relative tumor volume (RTV) was calculated as an index of anti-tumor effect during the dosing period for each group (FIG. 1).

RNR = biological target: T1, RNR (Homo sapiens, UniProt P23921+P31350); details: background art; cited from earlier work
T1 sequence (P23921 1-792): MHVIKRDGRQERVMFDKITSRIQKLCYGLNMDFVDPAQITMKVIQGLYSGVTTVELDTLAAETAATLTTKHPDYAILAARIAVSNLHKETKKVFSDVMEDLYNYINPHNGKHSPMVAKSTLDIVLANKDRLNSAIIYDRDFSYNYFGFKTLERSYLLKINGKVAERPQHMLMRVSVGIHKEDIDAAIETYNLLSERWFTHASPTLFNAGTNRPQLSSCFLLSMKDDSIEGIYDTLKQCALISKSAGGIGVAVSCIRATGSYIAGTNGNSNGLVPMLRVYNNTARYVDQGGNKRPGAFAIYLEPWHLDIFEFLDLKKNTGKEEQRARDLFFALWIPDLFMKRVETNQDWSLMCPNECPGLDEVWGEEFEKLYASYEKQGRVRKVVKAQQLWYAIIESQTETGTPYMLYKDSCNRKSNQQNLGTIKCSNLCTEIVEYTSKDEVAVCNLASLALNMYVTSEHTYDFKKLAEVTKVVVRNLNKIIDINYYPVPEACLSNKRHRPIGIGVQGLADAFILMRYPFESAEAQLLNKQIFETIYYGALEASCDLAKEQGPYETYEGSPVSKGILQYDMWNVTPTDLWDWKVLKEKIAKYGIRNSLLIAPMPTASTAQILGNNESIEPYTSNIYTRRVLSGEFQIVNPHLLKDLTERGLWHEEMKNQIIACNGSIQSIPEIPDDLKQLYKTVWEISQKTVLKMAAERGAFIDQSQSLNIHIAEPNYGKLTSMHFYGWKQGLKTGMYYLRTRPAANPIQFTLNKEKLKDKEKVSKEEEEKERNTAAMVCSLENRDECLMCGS
T1 sequence (P31350 1-389): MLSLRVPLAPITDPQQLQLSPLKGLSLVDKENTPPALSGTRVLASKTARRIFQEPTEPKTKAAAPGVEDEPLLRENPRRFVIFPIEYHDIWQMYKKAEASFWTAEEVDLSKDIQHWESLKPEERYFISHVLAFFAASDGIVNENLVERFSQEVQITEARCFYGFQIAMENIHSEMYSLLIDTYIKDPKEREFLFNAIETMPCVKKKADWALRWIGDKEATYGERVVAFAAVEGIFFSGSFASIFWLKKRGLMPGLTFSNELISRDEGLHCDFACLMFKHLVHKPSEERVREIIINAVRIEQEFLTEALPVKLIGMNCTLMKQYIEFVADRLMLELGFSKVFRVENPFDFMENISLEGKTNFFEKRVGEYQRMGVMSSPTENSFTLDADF

22 cell lines = test: Cell proliferation assay (CellTiter-Glo) and correlation with SLFN11 mRNA expression; assay type: cell-based; details: 10 micro mol/L, 3 days of exposure, Pearson's correlation
From the text: The HEL, NUGC-3, and RPMI8226 cell lines were obtained from the Japanese Collection of Research Bioresources. The 786-O, CFPAC-1, DU145, HCC1599, HCC1806, HCC38, HCT116, HL-60, K-562, MSTO-211H, MV-4-11, NCI-H460, NCI-H2170, and THP-1 cell lines were obtained from the ATCC. The A2780 and COLO 792 cell lines were obtained from the European Collection of Authenticated Cell Cultures. The A549, A673, and MCF-7 cell lines were obtained from DS Pharma Biomedical Co., Ltd.
Cell proliferation assay was performed as reported previously (Hasako, S., et al. Mol Cancer Ther 17, 1648-1658 (2018)). Briefly, cells were plated and incubated for 1 day, followed by 3 days of exposure to the compound. After exposure to Compound A, viable cells were detected by using the CellTiter-Glo luminescent cell viability assay (Promega). The experiment was performed in triplicates.
Correlation analysis of SLFN11 expression and Compound A cytotoxicity was performed using Pearson’s correlation coefficient (P < 0.05) in JMP 13 software. The gene expression data of cell lines were available online CCLE (http://www.broadinstitute.org/ccle/home). Compound A cytotoxicity data from 22 cell lines in Table 5 were used for correlation analysis (data for correlation was not shown).

A673 cells [4] = test: Caspase induction analysis (Caspase-Glo 3/7) in A673 cells treated with siRNA against SLFN11; assay type: cell-based; details: A673 cells transfected with siRNA against SLFN11, 24 h treatment
Protocol: as §2
Caspase induction analysis was performed as reported previously (Hasako., et al., ibid). Briefly, the cells with siRNAs for 24 h were seeded onto 96 well plate, incubated for24 h, and then treated with Compound A for 24 h. Caspase induction was detected by using the Caspase-Glo 3/7 assay (Promega). Relative caspase-3/7 activation was calculated by applying the correction with respect to cell number. The experiment was performed in triplicates.

| Structure (SMILES) | body weight change (BW change) ([1]; 1-week ON+1-week OFF Dosing Group (Groups I-1 and I-2), 200 or 300 mg/kg/day orally Day 1 to Day 7) | body weight change (BW change) ([1]; Continuous Dosing Group (Groups C-1 and C-2), 100 or 150 mg/kg/day orally Day 1 to Day 14) | cytotoxic effect (cell growth) after SLFN11 knockdown (A673 cells [2]) | effect of reducing tumor volume (relative tumor volume, RTV) ([3]; 1-week ON+1-week OFF Dosing Group, 200 or 300 mg/kg/day orally once daily Day 1 to Day 7, rest Day 8 to Day 14) | effect of reducing tumor volume (relative tumor volume, RTV) ([3]; Continuous Dosing Group, 100 or 150 mg/kg/day orally once daily Day 1 to Day 14) | effect of reducing tumor volume, Group I-1 compared with Group C-1 ([3]; total dosage 1400 mg/kg, I-1 200 mg/kg/day 1-week ON+1-week OFF vs C-1 100 mg/kg/day continuous) | effect of reducing tumor volume, Group I-2 compared with Group C-2 ([3]; total dosage 2100 mg/kg, I-2 300 mg/kg/day 1-week ON+1-week OFF vs C-2 150 mg/kg/day continuous) | RNR inhibitory activity (RNR) | correlation between SLFN11 mRNA expression and relative cell growth (%) (22 cell lines) | caspase-3/7 activation after SLFN11 knockdown (A673 cells [4]) |
| --- | --- | --- | --- | --- | --- | --- | --- | --- | --- | --- |
| Cc1ccc(F)c([C@@H](C)[C@H](NS(=O)(=O)c2ccc(Cl)cc2C(N)=O)c2n[nH]c(=O)o2)c1C [Compound A, 5-chloro-2-(N-((1S,2R)-2-(6-fluoro-2,3-dimetylphenyl)-1-(5-oxo-4,5-dihydro-1,3,4-oxadiazol-2-yl)propyl)sulfamoyl)benzamide] | shows drastic recovery in body weight | does not show satisfactorily recovery in terms of body weight loss | SLFN11 knockdown significantly suppressed the cytotoxic effect | shows the effect of reducing tumor volume compared with Control Group | shows the effect of reducing tumor volume compared with Control Group | tends to be higher than Group C-1, though the difference is not statistically significant | seems to be similar | potent | a significant correlation | suppression of Compound A-induced caspase-3/7 activation |
| NC(=O)NO [HU, hydroxyurea, reference compound] | – | – | – | – | – | – | – | weak | – | – |
